Experimental data as given in the supplement of paper PMC11451515.

Columns and labels:
[1] = test system: P12-Ichikawa; assay: AUC of viability dose-response curve (% viability x log10 dose units); higher = less sensitive; settings: 48 h
Procedure, shortened: (§1)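 Library compounds in DMSO were applied for 48 h at 37°C at 11 threefold doses (47 μM to 0.79 nM) to medium-adapted leukemia cells in 1536-well plates holding 500 or 1000 cells/well. Luminescence from CellTiter-Glo One was normalised plate by plate against DMSO and cell-free wells. Area under the curve came from trapezoidal integration of a log-logistic fit, after scaling curves that rose above full viability and discarding those that failed quality control. The fit had four parameters and used log10 doses.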

[2] = test system: SEM cells; assay: as above; settings: 48 h
Procedure, shortened: as §1

[3] = test system: NOMO1; assay: as above; settings: 48 h
Procedure, shortened: as §1

[4] = test system: P12-Ichikawa; assay: cell viability relative to DMSO control; higher = less cytotoxic; settings: HPLM + 10% dialyzed FBS, 48 h
Procedure, shortened: (§2)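 Leukemia cells (NOMO1 or SEM, 500 cells/well; P12-Ichikawa, 1000 cells/well) were seeded in 5 μl in 1536-well plates after at least four passages of adaptation to each medium. They received library compounds in DMSO by pin dosing, 11 threefold points from 47 μM to 0.79 nM. Luminescence with CellTiter-Glo One was read after 48 h at 37°C. Viability is stated per plate relative to DMSO wells, with cell-free wells as background.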

[5] = test system: SEM cells; assay: as above; settings: HPLM + 10% dialyzed FBS, 48 h
Procedure, shortened: as §2

[6] = test system: NOMO1; assay: as above; settings: HPLM + 10% dialyzed FBS, 48 h
Procedure, shortened: as §2

O=[S+]([O-])(CC1CS1)c1ccc(Oc2ccccc2)cc1 (stereo not drawn)
AUC of viability dose-response curve
Settings	[1]	[2]	[3]
HPLM + 10% dialyzed FBS	462	451	448
RPMI 5 mM glucose + 10% FBS	445	437	461
RPMI 5 mM glucose + 10% dialyzed FBS	447	450	435

CO[C@@H]1COCC[C@@H]1N[C@@H]1CC[C@@](C(=O)N2CCc3ncc(C(F)(F)F)cc3C2)(C(C)C)C1
Settings	AUC of viability dose-response curve, [2]	AUC of viability dose-response curve, [3]	cell viability, [4] [%]	cell viability, [5] [%]	cell viability, [6] [%]
0.000781 µM	–	–	98	97.1	107
0.00234 µM	–	–	109	107	133
0.00702 µM	–	–	123	110	121
0.0211 µM	–	–	119	112	142
0.0632 µM	–	–	113	111	157
0.19 µM	–	–	119	113	141
0.569 µM	–	–	118	114	132
1.71 µM	–	–	126	102	127
5.12 µM	–	–	127	119	143
15.4 µM	–	–	123	103	151
46.1 µM	–	–	47.4	68.1	96.6
HPLM + 10% dialyzed FBS	466	472	–	–	–
RPMI 5 mM glucose + 10% FBS	458	466	–	–	–
RPMI 5 mM glucose + 10% dialyzed FBS	467	472	–	–	–
